Data reported in US9182402B2, “Hepsin inhibitors” (Fred Hutchinson Cancer Research Center, priority 2008, dated 2015).

What was measured:
trypsin = trypsin (Sus scrofa (Pig), UniProt P00761); assay: Trypsin activity assay (chromogenic substrate); details: read-out: IC50 trypsin; 30 minutes preincubation at room temperature, substrate at Km
Method: (§3) Titration of the chromogenic substrate pryoGlu-Pro-Arg-pNA was performed for each enzyme and the resulting substrate-velocity data fit with nonlinear regression using GraphPad Prism 4 software (GraphPad, La Jolla, Calif.) to calculate Vmax and Km. […] The reactions were then followed using a kinetic microplate reader and the linear rates of increase in absorbance at 405 nm expressed as percent activity (100%×vi/vo). At least three independent experiments were performed for each enzyme. The IC50 was calculated by fitting the data to a four-parameter non-linear regression using GraphPad Prism 4.

thrombin = thrombin (Bos taurus (Bovine), UniProt P00735); assay: Thrombin activity assay (chromogenic substrate); assay type: biochemical; details: 30 minutes preincubation at room temperature, substrate at Km
Method: as §3

recombinant human hepsin [1] = biological target: recombinant human hepsin (Homo sapiens, UniProt P05981); assay: Hepsin activity assay (chromogenic substrate pyroGlu-Pro-Arg-pNA); assay type: biochemical; details: 30 minutes preincubation at room temperature, substrate at Km
Method: (§1) D. Hepsin, Trypsin and Thrombin Activity Assays.
(§2) Purified recombinant hepsin was preincubated with indicated compounds for 30 minutes at room temperature.

HEK 293FT cells = assay: Toxicity to HEK 293FT cells in the pericellular protease assay system (CellTiter-Glo); assay type: cell-based; details: 50 μM, 24-hour treatment
Method: The chromogenic serine protease substrate pyroglutamyl-L-prolyl-L-argininne-p-nitroaniline hydrochloride (pyrGlu-Pro-Arg-pNA) was then added to the media. […] (FIG. 5B) Toxicity of the candidate hepsin inhibitor compounds over the course of the pericellular protease assay was evaluated by 24-hour treatment of cells with 20 μM (white bars) or 50 μM (black bars) compounds, relative to vehicle control. […] Puromycin at 5 μg/mL was used as a positive control.
G. Pericellular Serine Proteolytic Activity Assay. […] After 3.5 hrs, transfection media was replaced with fresh media containing 20 μM or 50 μM of test compounds or solvent control (0.5% DMSO in media) and cells incubated overnight. […] Percent inhibition was calculated as residual activity relative to solvent control. […]
To determine the potential cytotoxicity of the previously identified hepsin inhibitors in this model system, HEK 293FT cells were incubated under identical conditions with 20 and 50 μM of the compounds and cytotoxicity was determined using the ATP-luciferase coupled assay as described above (FIG. 5B). […] The remaining compounds at 20 and 50 μM final concentration were incubated overnight with hepsin expressing cells and pericellular proteolytic activity was determined as described above (FIG. 6).

LNCaP cells = assay: Cell cytotoxicity assay (CellTiter-Glo, ATP-luciferase); details: 20 μM, 72 hours, compounds replenished daily
[2] = test system: MP-1 mouse prostate epithelial cell line; assay: as above; details: MP-1, 20 μM, 72 hours, compounds replenished daily
HepG2 cells = assay: as above; details: HepG2, 20 μM, 72 hours, compounds replenished daily
[3] = biological target: full-length wild-type murine hepsin expressed in HEK 293FT cells (Mus musculus (Mouse), UniProt O35453); assay: Hepsin-dependent pericellular serine proteolytic activity assay; assay type: cell-based; details: overnight incubation; for attenuation of hepsin-dependent pericellular proteolytic activity: 50 μM, activity/expression level relative to vehicle; for pericellular proteolytic activity (in words): 20 and 50 μM
Method: Loading was verified via immunoblot against β-actin.
G. Pericellular Serine Proteolytic Activity Assay. […] After 3.5 hrs, transfection media was replaced with fresh media containing 20 μM or 50 μM of test compounds or solvent control (0.5% DMSO in media) and cells incubated overnight. Attached cell monolayers were then washed twice with PBS and once with assay buffer (5% CO2 equilibrated phenol-red free DMEM with 1% BSA) to remove residual serum proteases/inhibitors. Cells were then incubated in assay buffer containing 20 or 50 μM compounds for 30 minutes at 37° C. […] Percent inhibition was calculated as residual activity relative to solvent control. Matched samples were used in parallel to determine toxicity of the test compounds to HEK 293FT cells in this system using the CellTiter-Glo™ assay.
D. Inhibition of Hepsin-Dependent Pericellular Proteolytic Activity. To determine whether the identified compounds were able to inhibit cell-based hepsin activity, an assay was devised to measure hepsin-dependent pericellular serine proteolytic activity (FIG. 5A) (Raynaud et al., 1992 J Cell Physiol 151:378; Bauvois et al., 1990 Eur. J. Immunol. 20:459; Bauvois et al., 1992 Eur. J. Immunol. 22:923; Sameni et al., 2000 Neoplasia 2:496; McGowen et al., 2000 Canc. Res. 60:4771). […] Attached cell monolayers were incubated in assay buffer with peptide substrate and the reactions were allowed to proceed at 37° C. […] Activity levels were adjusted by altering hepsin expression levels to within the linear range of detection. A positive linear rate of activity was observed only for wild-type hepsin-expressing cells and was abolished in the presence of the broad spectrum serine protease inhibitor PEFAbloc.

recombinant human hepsin [4] = assay: Hepsin activity assay (chromogenic substrate pyroGlu-Pro-Arg-pNA); assay type: biochemical; details: hepsin relative to trypsin and thrombin
Method: as §1, §2

hepsin = hepsin (Mus musculus (Mouse), UniProt O35453); assay: Immunoblot of hepsin expression levels in compound treated HEK 293FT cells; details: 20 and 50 μM, 24 hours
Method: The membrane was blocked overnight in TBST buffer containing: 5% non-fat milk, 2% normal goat serum in 50 mM Tris-HCl, pH 8.0, 100 mM NaCl, 0.1% Tween-20. The membrane was then incubated in 3% BSA in TBST with polyclonal anti-hepsin antibody (1:1000) for two hours at room temperature, washed 3×5 minutes with TBST and incubated for one hour in 0.1% BSA in TBST containing goat-anti-rabbit-HRP secondary antibody (1:2000), washed 3×5 minutes in TBST and developed with ECL (Pierce Chemicals, Rockford, Ill.). […] Expression levels were quantified by densitometry using ImageQuantTL™ (GE Healthcare Life Sciences, Piscataway, N.J.).
As treatment with chemical compounds may alter hepsin expression level (and thereby impact pericellular proteolytic activity), hepsin levels in drug-treated cells were determined via immunoblotting (FIG. 6B).

[5] = approximate value; cited from earlier work

Sequence of recombinant human hepsin (Homo sapiens, UniProt P05981) (P05981 1-162 limits assumed): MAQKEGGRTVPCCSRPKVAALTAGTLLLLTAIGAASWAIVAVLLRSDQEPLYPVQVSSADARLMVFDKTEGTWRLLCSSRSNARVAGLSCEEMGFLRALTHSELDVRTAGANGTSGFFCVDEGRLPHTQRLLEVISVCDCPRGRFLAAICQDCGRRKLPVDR
Sequence of recombinant human hepsin (Homo sapiens, UniProt P05981) (P05981 163-417 limits assumed): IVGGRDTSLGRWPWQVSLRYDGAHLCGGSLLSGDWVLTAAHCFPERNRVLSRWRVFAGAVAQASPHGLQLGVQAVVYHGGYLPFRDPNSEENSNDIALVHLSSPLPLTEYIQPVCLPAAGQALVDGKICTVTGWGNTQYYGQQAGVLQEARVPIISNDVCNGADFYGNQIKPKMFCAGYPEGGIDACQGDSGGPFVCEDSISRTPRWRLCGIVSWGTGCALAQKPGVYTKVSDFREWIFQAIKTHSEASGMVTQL
Sequence of full-length wild-type murine hepsin expressed in HEK 293FT cells (O35453 other isoform, or with tags, fused parts or gaps): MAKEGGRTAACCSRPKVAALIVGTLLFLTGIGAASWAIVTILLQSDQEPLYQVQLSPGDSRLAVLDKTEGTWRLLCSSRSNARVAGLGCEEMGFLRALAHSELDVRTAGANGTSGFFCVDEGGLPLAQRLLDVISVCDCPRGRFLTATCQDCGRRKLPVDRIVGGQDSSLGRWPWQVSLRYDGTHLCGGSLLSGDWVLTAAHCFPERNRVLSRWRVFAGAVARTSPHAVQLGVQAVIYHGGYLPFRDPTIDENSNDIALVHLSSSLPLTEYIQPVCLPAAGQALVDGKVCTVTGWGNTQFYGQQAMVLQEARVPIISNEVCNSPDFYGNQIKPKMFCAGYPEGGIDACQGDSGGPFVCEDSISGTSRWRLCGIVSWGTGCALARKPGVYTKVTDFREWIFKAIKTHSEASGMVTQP
Sequence of trypsin (P00761 9-231): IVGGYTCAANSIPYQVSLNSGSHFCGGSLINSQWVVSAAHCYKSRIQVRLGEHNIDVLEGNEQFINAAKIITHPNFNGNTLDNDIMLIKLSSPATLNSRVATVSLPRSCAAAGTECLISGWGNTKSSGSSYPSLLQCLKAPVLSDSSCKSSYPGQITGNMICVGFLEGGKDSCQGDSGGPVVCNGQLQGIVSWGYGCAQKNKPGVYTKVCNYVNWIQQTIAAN

What does the source list for `O=C(Nc1ccc(-c2nc3ccccc3o2)c(O)c1)c1ccc(-c2cccc([N+](=O)[O-])c2)o1` [Compound 12, N-[4-(1,3-benzoxazol-2-yl)-3-hydroxyphenyl]-5-(3-nitrophenyl)-2-furamide]?
IC50 (trypsin): 3500 ± 670 nM; IC50 (thrombin): > 20000 nM; IC50 (recombinant human hepsin [1]): 330 ± 70 nM; cytotoxicity to HEK 293FT cells (HEK 293FT cells): substantial toxicity; cellular toxicity (cell viability) (LNCaP cells): substantially toxic; cellular toxicity (cell viability) [2]: substantially toxic; cellular toxicity (cell viability) (HepG2 cells): without affecting

With `Cc1cccc(CN2CCN(C(c3ccccc3)c3ccc(Cl)cc3)CC2)c1` (stereo not drawn) [Compound 13, 1-[(4-chlorophenyl)(phenyl)methyl]-4-(3-methylbenzyl)piperazine, reference compound] as the compound, how does the IC50 (trypsin) read?
The IC50 was over 20000 nM.

What about the “attenuation of hepsin-dependent pericellular proteolytic activity” value [3] of the same compound?
Its value is about 25%.

And the “attenuation of hepsin-dependent pericellular proteolytic activity” value ([3]; listed as Meclizine)?
The value was 30%.

What about the “pericellular proteolytic activity (in words)” value [3] of the same compound?
The value was “attenuated pericellular proteolytic activity in a dose dependent manner”.

And the IC50 (thrombin)?
The IC50 was over 20000 nM.

What about the IC50 (recombinant human hepsin [1]) of the same compound?
Its IC50 is 2020 ± 370 nM.

What about the specificity for hepsin (recombinant human hepsin [4]) of the same compound?
Its specificity for hepsin is over 10 fold.

What about the hepsin expression levels (hepsin) of the same compound?
Its hepsin expression levels is “without substantially affecting hepsin expression levels”.

What about the “cellular toxicity (cell viability)” value (LNCaP cells) of the same compound?
Its value is “limited or no cytotoxicity”.

What about the “cellular toxicity (cell viability)” value [2] of the same compound?
Its value is “limited or no cytotoxicity”.

What about the “cellular toxicity (cell viability)” value (HepG2 cells) of the same compound?
The value was “limited or no cytotoxicity”.

With `CC(C)(Sc1cc(C(C)(C)C)c(O)c(C(C)(C)C)c1)Sc1cc(C(C)(C)C)c(O)c(C(C)(C)C)c1` [Compound 14, 4,4′-[propane-2,2-diylbis(sulfanediyl)]bis(2,6-di-tert-butylphenol), reference compound] as the compound, how does the IC50 (trypsin) read?
Its IC50 is 33500 ± 11500 nM.

And the logP [5]?
The logP was about 10.

And the “pericellular proteolytic activity (in words)” value [3]?
The value was “not have shown an ability to reduce pericellular serine protease activity”.

What about the IC50 (thrombin) of the same compound?
The IC50 was over 20000 nM.

And the IC50 (recombinant human hepsin [1])?
The IC50 was 430 ± 50 nM.

What about the “cellular toxicity (cell viability)” value (LNCaP cells) of the same compound?
Its value is “limited or no cytotoxicity”.

What about the “cellular toxicity (cell viability)” value [2] of the same compound?
The value was “limited or no cytotoxicity”.

And the “cellular toxicity (cell viability)” value (HepG2 cells)?
Its value is “limited or no cytotoxicity”.

Which results are given for `O=C1c2c(O)cccc2Cc2cccc(O)c21` [Compound 15, 1,8-dihydroxyanthracen-9(10H)-one, reference compound]?
IC50 (trypsin): 1260 ± 300 nM; IC50 (thrombin): > 20000 nM; IC50 (recombinant human hepsin [1]): 230 ± 50 nM; cytotoxicity to HEK 293FT cells (HEK 293FT cells): substantial toxicity; cellular toxicity (cell viability) (LNCaP cells): toxic; cellular toxicity (cell viability) [2]: toxic; cellular toxicity (cell viability) (HepG2 cells): toxic
